Test system: adult mongrel dogs
Assay: Phenylephrine-induced hypertension in four anesthetized dogs (Example 8)
Format: in vivo, dog
Settings: after administ. of phenylephrine 10 min.; 10 µg/kg/min, before CGRP
Experimental: Example 6 was repeated by substantially almost same manner using four adult mongrel dogs, mean body weight 12.3±3.0 kg, applying same anesthetic condition. After setting up the experiment at more than 60 minutes passing and confirming to stabilize the depth of anesthesia and blood flow, phenylephrine (hypertensor) 10 µg/kg/min was administered.
Further after 10 minutes passed, the active ingredient, desalanyl-deamino-c-CGRP 10 µg/kg/hr was administered and at 10 min. and 20 min. after administration of the active ingredient, heart rate (HR) and mean a artery pressure (MAP) were measured.

SMILES: CNC[C@H](O)c1cccc(O)c1 [phenylephrine]
- HR: Heart rate: 138.0±9.3 beat/min
- MAP: Mean artery pressure: 159.0±6.2 mmHg

Reference: patent EP0672419A1, “BLOOD PRESSURE REGULATOR” (Asahi Kasei Kogyo Kabushiki Kaisha, priority 1991, dated 1995)
